Source: patent US20150105252A1, “SUBSTITUTED PYRAZOLES AS HERBICIDES” (E I DU PONT DE NEMOURS AND COMPANY, priority 2013, published 2015)

Tests used:
corn = assay: Test A postemergence; assay type: in vivo, Zea mays
Method in brief: (§1)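 Seeds were sown in a loam soil–sand blend and given a directed soil spray preemergence; postemergence plants at 2–10 cm, one- to two-leaf stage, were sprayed with compound in non-phytotoxic solvent with surfactant. After about 10 days in a greenhouse, injury was visually rated against untreated controls (0 = no effect, 100 = complete control).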

ryegrass, Italian = assay: Test C preemergence; assay type: in vivo, Lolium multiflorum
Method in brief: (§2)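 Postemergence values come from plants sprayed at the 1- to 4-leaf stage (2–18 cm) in peat moss–vermiculite medium; preemergence values from seeds treated in a loam–sand blend. Both evaluated visually against controls after 13–15 greenhouse days, scale 0–100.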

galium = assay: Test C preemergence; assay type: in vivo, Galium aparine
Method in brief: as §2

foxtail, giant = assay: Test A postemergence; assay type: in vivo, Setaria faberii
Method in brief: as §1

pigweed [1] = assay: Test C preemergence; assay type: in vivo, Amaranthus retroflexus
Method in brief: as §2

morningglory [2] = assay: Test C preemergence; assay type: in vivo, Ipomoea coccinea
Method in brief: as §2

morningglory [3] = assay: Test A postemergence; assay type: in vivo, Ipomoea spp.
Method in brief: as §1

sedge, umbrella = assay: Test B flood; assay type: in vivo, Cyperus difformis; details: 250 g ai/ha, visual rating on 0 to 100 scale (0 no effect, 100 complete control), 13 to 15 days
Method in brief: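 Plants were grown to the 2-leaf stage, then pots were flooded to 3 cm above the soil and compounds were applied directly into the paddy water. Water depth was held for the whole test; after 13 to 15 days in a greenhouse, injury was visually rated against untreated controls (0 = no effect, 100 = complete control).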

pigweed [4] = assay: Test A preemergence; assay type: in vivo, Amaranthus retroflexus; details: preemergence; for Pigweed plant response rating (0 to 100 scale): visual injury approx. 10 days after treatment
Method in brief: as §1

soybean = assay: Test C preemergence; assay type: in vivo, Glycine max
Method in brief: as §2

morningglory [5] = assay: Test A preemergence; assay type: in vivo, Ipomoea spp.; details: preemergence; for Morningglory plant response rating (0 to 100 scale): visual injury approx. 10 days after treatment
Method in brief: as §1

nutsedge, yellow = assay: Test C preemergence; assay type: in vivo, Cyperus esculentus
Method in brief: as §2

crabgrass, large = assay: Test C preemergence; assay type: in vivo, Digitaria sanguinalis
Method in brief: as §2

velvetleaf = assay: Test A postemergence; assay type: in vivo, Abutilon theophrasti
Method in brief: as §1

[6] = Postemergence, 500 g ai/ha, visual rating after approx. 10 days, 0 to 100 scale (0 no effect, 100 complete control)
[7] = postemergence, 125 g ai/ha, about 10 days, visual rating on 0 to 100 scale (0 no effect, 100 complete control)
[8] = preemergence, 31 g ai/ha, visual rating, scale 0 to 100 (0 no effect, 100 complete control), 13 to 15 days
[9] = preemergence, 62 g ai/ha, 13 to 15 days, scale 0 to 100, 0 = no effect, 100 = complete control
[10] = preemergence, 125 g ai/ha, scale 0 to 100, 0 is no effect, 100 is complete control
[11] = 125 g ai/ha, visual injury, 0 to 100 scale, approx. 10 days
[12] = 500 g ai/ha, visual injury after approx. 10 days, 0 to 100 scale (0 no effect, 100 complete control)
[13] = Postemergence, 500 g ai/ha, 0 to 100 scale (0 no effect, 100 complete control)
[14] = preemergence, 62 g ai/ha, scale 0 to 100 (0 no effect, 100 complete control), 13 to 15 days
[15] = preemergence, 125 g ai/ha, 13 to 15 days, scale 0 to 100, 0 = no effect, 100 = complete control
[16] = preemergence, 250 g ai/ha, scale 0 to 100, 0 is no effect, 100 is complete control
[17] = Postemergence, 125 g ai/ha, 0 to 100 scale, 0 no effect, 100 complete control
[18] = Preemergence, rate head not shown (block before 16 g ai/ha), scale 0 to 100

CCc1cc(C(=O)NC(C)C)nn1Cc1ccnc(C(F)(F)F)c1 [Compound 103]
Corn plant response rating (corn; [6]): 90
Corn plant response rating (corn; [7]): 80
Plant response rating (scale of 0 to 100), Ryegrass, Italian (ryegrass, Italian; Preemergence, 250 g ai/ha): 98
Ryegrass, Italian plant response rating (ryegrass, Italian; [8]): 75
Plant response rating, Ryegrass, Italian (ryegrass, Italian; [9]): 95
Ryegrass, Italian plant response rating (ryegrass, Italian; [10]): 95
Plant response rating (scale of 0 to 100), Galium (galium; Preemergence, 250 g ai/ha): 100
Galium plant response rating (galium; [8]): 100
Plant response rating, Galium (galium; [9]): 100
Galium plant response rating (galium; [10]): 100
Foxtail, Giant plant response rating (foxtail, giant; [6]): 90
Foxtail, Giant plant response rating (foxtail, giant; [7]): 90
Plant response rating (scale of 0 to 100), Pigweed (pigweed [1]; Preemergence, 250 g ai/ha): 100
Pigweed plant response rating (pigweed [1]; [8]): 100
Plant response rating, Pigweed (pigweed [1]; [9]): 100
Pigweed plant response rating (pigweed [1]; [10]): 100
Plant response rating (scale of 0 to 100), Morningglory (morningglory [2]; Preemergence, 250 g ai/ha): 100
Morningglory plant response rating (morningglory [2]; [8]): 100
Plant response rating, Morningglory (morningglory [2]; [9]): 100
Morningglory plant response rating (morningglory [2]; [10]): 100
Morningglory plant response rating (morningglory [3]; [6]): 100
Morningglory plant response rating (morningglory [3]; [7]): 90
Plant response rating, Sedge, Umbrella (sedge, umbrella): 90
Pigweed plant response rating (pigweed [4]; [11]): 100
Pigweed plant response rating (pigweed [4]; [12]): 100
Plant response rating (scale of 0 to 100), Soybean (soybean; Preemergence, 250 g ai/ha): 100
Soybean plant response rating (soybean; [8]): 90
Plant response rating, Soybean (soybean; [9]): 100
Soybean plant response rating (soybean; [10]): 100
Morningglory plant response rating (morningglory [5]; [11]): 100
Morningglory plant response rating (morningglory [5]; [12]): 100
Plant response rating (scale of 0 to 100), Nutsedge, Yellow (nutsedge, yellow; Preemergence, 250 g ai/ha): 95
Nutsedge, Yellow plant response rating (nutsedge, yellow; [8]): 40
Plant response rating, Nutsedge, Yellow (nutsedge, yellow; [9]): 80
Nutsedge, Yellow plant response rating (nutsedge, yellow; [10]): 85
Plant response rating (scale of 0 to 100), Crabgrass, Large (crabgrass, large; Preemergence, 250 g ai/ha): 100
Crabgrass, Large plant response rating (crabgrass, large; [8]): 100
Plant response rating, Crabgrass, Large (crabgrass, large; [9]): 100
Crabgrass, Large plant response rating (crabgrass, large; [10]): 100
Velvetleaf plant response rating (velvetleaf; [6]): 80
Velvetleaf plant response rating (velvetleaf; [7]): 70

CCc1cc(C(=O)NC(C)C)nn1Cc1ccnc(C(F)(F)F)c1 [Compound 139]
Corn plant response rating (corn; [13]): 90
Corn plant response rating (corn; [7]): 50
Ryegrass, Italian plant response rating (ryegrass, Italian; [8]): 10
Ryegrass, Italian plant response rating (ryegrass, Italian; [14]): 60
Plant response rating, Ryegrass, Italian (ryegrass, Italian; [15]): 90
Ryegrass, Italian plant response rating (ryegrass, Italian; [16]): 90
Galium plant response rating (galium; [8]): 30
Galium plant response rating (galium; [14]): 80
Plant response rating, Galium (galium; [15]): 100
Galium plant response rating (galium; [16]): 100
Foxtail, Giant plant response rating (foxtail, giant; [13]): 90
Foxtail, Giant plant response rating (foxtail, giant; [7]): 90
Pigweed plant response rating (pigweed [1]; [8]): 55
Pigweed plant response rating (pigweed [1]; [14]): 90
Plant response rating, Pigweed (pigweed [1]; [15]): 90
Pigweed plant response rating (pigweed [1]; [16]): 100
Morningglory plant response rating (morningglory [2]; [8]): 5
Morningglory plant response rating (morningglory [2]; [14]): 35
Plant response rating, Morningglory (morningglory [2]; [15]): 98
Morningglory plant response rating (morningglory [2]; [16]): 98
Morningglory plant response rating (morningglory [3]; [13]): 100
Morningglory plant response rating (morningglory [3]; [7]): 60
Plant response rating, Sedge, Umbrella (sedge, umbrella): 100
Pigweed plant response rating (pigweed [4]; [11]): 100
Pigweed plant response rating (pigweed [4]; [12]): 100
Soybean plant response rating (soybean; [8]): 5
Soybean plant response rating (soybean; [14]): 5
Plant response rating, Soybean (soybean; [15]): 30
Soybean plant response rating (soybean; [16]): 60
Morningglory plant response rating (morningglory [5]; [11]): 40
Morningglory plant response rating (morningglory [5]; [12]): 100
Nutsedge, Yellow plant response rating (nutsedge, yellow; [8]): 15
Nutsedge, Yellow plant response rating (nutsedge, yellow; [14]): 10
Plant response rating, Nutsedge, Yellow (nutsedge, yellow; [15]): 35
Nutsedge, Yellow plant response rating (nutsedge, yellow; [16]): 50
Crabgrass, Large plant response rating (crabgrass, large; [8]): 100
Crabgrass, Large plant response rating (crabgrass, large; [14]): 100
Plant response rating, Crabgrass, Large (crabgrass, large; [15]): 100
Crabgrass, Large plant response rating (crabgrass, large; [16]): 100
Velvetleaf plant response rating (velvetleaf; [13]): 90
Velvetleaf plant response rating (velvetleaf; [7]): 40

CCc1cc(C(=O)NC2CC2)nn1Cc1cc(C(F)(F)C(F)(F)F)nn1C [Compound 226]
Corn plant response rating (corn; [17]): 50
Corn plant response rating (corn; [13]): 80
Plant response rating, Ryegrass, Italian (ryegrass, Italian; [18]): 0
Ryegrass, Italian plant response rating (ryegrass, Italian; [14]): 5
Plant response rating, Ryegrass, Italian (ryegrass, Italian; [15]): 35
Ryegrass, Italian plant response rating (ryegrass, Italian; [16]): 80
Plant response rating, Galium (galium; [18]): 0
Galium plant response rating (galium; [14]): 90
Plant response rating, Galium (galium; [15]): 80
Galium plant response rating (galium; [16]): 90
Foxtail, Giant plant response rating (foxtail, giant; [17]): 80
Foxtail, Giant plant response rating (foxtail, giant; [13]): 90
Plant response rating, Pigweed (pigweed [1]; [18]): 100
Pigweed plant response rating (pigweed [1]; [14]): 100
Plant response rating, Pigweed (pigweed [1]; [15]): 100
Pigweed plant response rating (pigweed [1]; [16]): 100
Plant response rating, Morningglory (morningglory [2]; [18]): 85
Morningglory plant response rating (morningglory [2]; [14]): 85
Plant response rating, Morningglory (morningglory [2]; [15]): 100
Morningglory plant response rating (morningglory [2]; [16]): 100
Morningglory plant response rating (morningglory [3]; [17]): 70
Morningglory plant response rating (morningglory [3]; [13]): 100
Plant response rating, Sedge, Umbrella (sedge, umbrella): 90
Pigweed plant response rating (0 to 100 scale) (pigweed [4]; 125 g ai/ha): 100
Plant response rating, Soybean (soybean; [18]): 10
Soybean plant response rating (soybean; [14]): 70
Plant response rating, Soybean (soybean; [15]): 95
Soybean plant response rating (soybean; [16]): 100
Morningglory plant response rating (0 to 100 scale) (morningglory [5]; 125 g ai/ha): 100
Plant response rating, Nutsedge, Yellow (nutsedge, yellow; [18]): 0
Nutsedge, Yellow plant response rating (nutsedge, yellow; [14]): 5
Plant response rating, Nutsedge, Yellow (nutsedge, yellow; [15]): 5
Nutsedge, Yellow plant response rating (nutsedge, yellow; [16]): 20
Plant response rating, Crabgrass, Large (crabgrass, large; [18]): 80
Crabgrass, Large plant response rating (crabgrass, large; [14]): 100
Plant response rating, Crabgrass, Large (crabgrass, large; [15]): 100
Crabgrass, Large plant response rating (crabgrass, large; [16]): 100
Velvetleaf plant response rating (velvetleaf; [17]): 50
Velvetleaf plant response rating (velvetleaf; [13]): 90

Cc1cc(C(=O)NC(C)C)nn1Cc1ccnc(C(F)(F)F)c1 [Compound 197]
Corn plant response rating (corn; [13]): 90
Corn plant response rating (corn; [7]): 30
Ryegrass, Italian plant response rating (ryegrass, Italian; [8]): 15
Ryegrass, Italian plant response rating (ryegrass, Italian; [14]): 35
Plant response rating, Ryegrass, Italian (ryegrass, Italian; [15]): 85
Ryegrass, Italian plant response rating (ryegrass, Italian; [16]): 90
Galium plant response rating (galium; [8]): 90
Galium plant response rating (galium; [14]): 100
Plant response rating, Galium (galium; [15]): 98
Galium plant response rating (galium; [16]): 95
Foxtail, Giant plant response rating (foxtail, giant; [13]): 90
Foxtail, Giant plant response rating (foxtail, giant; [7]): 80
Pigweed plant response rating (pigweed [1]; [8]): 100
Pigweed plant response rating (pigweed [1]; [14]): 100
Plant response rating, Pigweed (pigweed [1]; [15]): 100
Pigweed plant response rating (pigweed [1]; [16]): 100
Morningglory plant response rating (morningglory [2]; [8]): 75
Morningglory plant response rating (morningglory [2]; [14]): 100
Plant response rating, Morningglory (morningglory [2]; [15]): 100
Morningglory plant response rating (morningglory [2]; [16]): 100
Morningglory plant response rating (morningglory [3]; [17]): 80
Morningglory plant response rating (morningglory [3]; [13]): 100
Plant response rating, Sedge, Umbrella (sedge, umbrella): 85
Pigweed plant response rating (0 to 100 scale) (pigweed [4]; 125 g ai/ha): 100
Pigweed plant response rating (pigweed [4]; [12]): 100
Soybean plant response rating (soybean; [8]): 45
Soybean plant response rating (soybean; [14]): 80
Plant response rating, Soybean (soybean; [15]): 98
Soybean plant response rating (soybean; [16]): 98
Morningglory plant response rating (0 to 100 scale) (morningglory [5]; 125 g ai/ha): 100
Morningglory plant response rating (morningglory [5]; [12]): 100
Nutsedge, Yellow plant response rating (nutsedge, yellow; [8]): 0
Nutsedge, Yellow plant response rating (nutsedge, yellow; [14]): 25
Plant response rating, Nutsedge, Yellow (nutsedge, yellow; [15]): 75
Nutsedge, Yellow plant response rating (nutsedge, yellow; [16]): 85
Crabgrass, Large plant response rating (crabgrass, large; [8]): 100
Crabgrass, Large plant response rating (crabgrass, large; [14]): 100
Plant response rating, Crabgrass, Large (crabgrass, large; [15]): 100
Crabgrass, Large plant response rating (crabgrass, large; [16]): 100
Velvetleaf plant response rating (velvetleaf; [17]): 30
Velvetleaf plant response rating (velvetleaf; [13]): 80
